# Laboratory results: patent US8026218B2, “Bifunctional analgesic compounds for opioid receptor agonists and neurokinin-1 receptor antagonists” (The University of Arizona, priority 2006, dated 2011)
# Read-outs that look alike come from different tables or passages of the source.
# Columns and labels:
# [1] = target: T1, rat μ opioid receptors (rMOR) (Rattus norvegicus, UniProt P33535); experiment: biochemical; type: biochemical
# T1 construct: expressed in transfected cells; host or cells: HN9.10 neuroblastoma cell line, pCDNA3, neomycin-selected clones
# [2] = target: T2, human NK1 receptor (hNK1) (Homo sapiens, UniProt P25103); experiment: Radioligand competition binding, [3H]-Substance P, hNK1
# T2 construct: expressed in transfected cells
# μ opioid receptors (GPI) = experiment: Guinea pig isolated ileum (GPI) assay, opioid agonist; set-up: GPI/LMMP Opioid(m) Agonist, % inh.: unit of the concentration uncertain;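 further: inhibition of electrically evoked contractions (0.1 Hz, 0.4 msec, supramaximal voltage) in organ baths at 37 °C, contraction height 3 min after each cumulative dose versus the 1 min before dosing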
# rat NK1 (rNK1) receptor = target: T3, rat NK1 (rNK1) receptor (Rattus norvegicus, UniProt P14600); experiment: Radioligand competition binding, [3H]substance P, rNK1/CHO membranes; conditions: for IC50: membranes from transfected CHO cells
# T3 construct: expressed in transfected cells; host or cells: CHO (rNK-1/CHO cell line from Dr. James Krause)
# δ opioid receptors (MVD) = target: T4, δ opioid receptors (MVD) (Mus musculus, UniProt P32300); experiment: Mouse isolated vas deferens (MVD) assay, opioid agonist
# T4 construct: from tissue; host or cells: mouse (ICR) isolated vas deferens
# [3] = target: T5, human δ opioid receptors (hDOR) (Homo sapiens, UniProt P41143); experiment: Radioligand competition binding, [3H]DPDPE, hDOR membranes
# T5 construct: expressed in transfected cells; host or cells: HN9.10 neuroblastoma cell line, pCDNA3, neomycin-selected clones
# [4] = target: T6, Substance P receptors (guinea pig NK1) (Cavia porcellus, UniProt P30547); experiment: Guinea pig isolated ileum (GPI) assay with substance P stimulation in presence of 1 μM naloxone; conditions: for GPI/LMMP SP Agonist (IC50; nM): Table 39
# T6 construct: from tissue; host or cells: guinea pig (Hartley) ileum LMMP, 1 μM naloxone present
# [5] = target: T1, rat μ opioid receptors (rMOR); experiment: Radioligand competition binding, [3H]DAMGO, rMOR membranes
# [6] = target: T5, human δ opioid receptors (hDOR); experiment: [35S]GTP-γ-S binding assay, hDOR; type: biochemical
# [7] = Table 39, read-out: GTP binding rMOR Emax
# [8] = membranes from transfected HN9.10 cells
# [9] = read-out: GTP binding hDOR Emax
# [10] = Table 30, read-out: GPI/LMMP Opioid(m) Agonist (IC50; nM)
# [11] = Table 39, read-out: GPI/LMMP opioid(mu) agonist (IC50; nM)
# T2 sequence (P25103 whole entry): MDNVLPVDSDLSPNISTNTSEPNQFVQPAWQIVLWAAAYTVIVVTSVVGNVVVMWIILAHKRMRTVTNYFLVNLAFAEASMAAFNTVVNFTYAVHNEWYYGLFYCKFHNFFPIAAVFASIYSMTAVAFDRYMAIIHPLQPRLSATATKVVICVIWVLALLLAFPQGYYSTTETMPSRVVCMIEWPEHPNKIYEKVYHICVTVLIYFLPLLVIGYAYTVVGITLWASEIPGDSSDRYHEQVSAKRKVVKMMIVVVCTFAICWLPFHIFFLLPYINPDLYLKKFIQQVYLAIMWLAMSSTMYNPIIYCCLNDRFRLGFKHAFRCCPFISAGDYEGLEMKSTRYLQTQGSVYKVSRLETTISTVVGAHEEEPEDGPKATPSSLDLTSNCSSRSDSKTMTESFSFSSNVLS
# T4 sequence (P32300 whole entry): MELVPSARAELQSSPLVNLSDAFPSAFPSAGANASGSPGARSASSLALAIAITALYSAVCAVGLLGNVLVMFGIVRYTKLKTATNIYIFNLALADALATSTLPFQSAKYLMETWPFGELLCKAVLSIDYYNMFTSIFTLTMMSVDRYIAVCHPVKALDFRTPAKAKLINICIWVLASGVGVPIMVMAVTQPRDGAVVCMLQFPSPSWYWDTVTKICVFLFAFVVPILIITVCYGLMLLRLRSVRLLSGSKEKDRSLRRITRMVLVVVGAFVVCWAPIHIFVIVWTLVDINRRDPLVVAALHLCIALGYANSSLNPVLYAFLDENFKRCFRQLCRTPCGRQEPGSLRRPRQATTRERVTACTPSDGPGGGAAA
# T1 sequence (P33535 whole entry): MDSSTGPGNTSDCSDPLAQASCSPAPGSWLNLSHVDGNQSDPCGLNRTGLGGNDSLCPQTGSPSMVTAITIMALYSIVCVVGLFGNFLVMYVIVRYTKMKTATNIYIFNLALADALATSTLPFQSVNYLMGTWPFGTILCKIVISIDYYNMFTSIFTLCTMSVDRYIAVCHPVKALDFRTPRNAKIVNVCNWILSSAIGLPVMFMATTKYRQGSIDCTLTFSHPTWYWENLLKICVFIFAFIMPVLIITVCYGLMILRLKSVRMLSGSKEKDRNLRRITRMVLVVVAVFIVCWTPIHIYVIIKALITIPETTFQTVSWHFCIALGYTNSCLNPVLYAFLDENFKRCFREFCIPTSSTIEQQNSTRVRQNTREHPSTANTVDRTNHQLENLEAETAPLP
# T3 sequence (P14600 whole entry): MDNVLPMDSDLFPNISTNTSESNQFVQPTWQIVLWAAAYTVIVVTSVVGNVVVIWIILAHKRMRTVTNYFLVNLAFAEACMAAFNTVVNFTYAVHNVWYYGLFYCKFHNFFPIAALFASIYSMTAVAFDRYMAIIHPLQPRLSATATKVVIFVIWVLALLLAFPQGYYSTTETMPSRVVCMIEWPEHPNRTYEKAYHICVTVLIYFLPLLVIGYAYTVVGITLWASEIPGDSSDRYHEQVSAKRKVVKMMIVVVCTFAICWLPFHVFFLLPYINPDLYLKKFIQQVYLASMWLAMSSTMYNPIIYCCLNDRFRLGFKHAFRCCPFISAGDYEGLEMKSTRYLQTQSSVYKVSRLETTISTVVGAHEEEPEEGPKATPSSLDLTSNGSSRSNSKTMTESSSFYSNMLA
# T5 sequence (P41143 whole entry): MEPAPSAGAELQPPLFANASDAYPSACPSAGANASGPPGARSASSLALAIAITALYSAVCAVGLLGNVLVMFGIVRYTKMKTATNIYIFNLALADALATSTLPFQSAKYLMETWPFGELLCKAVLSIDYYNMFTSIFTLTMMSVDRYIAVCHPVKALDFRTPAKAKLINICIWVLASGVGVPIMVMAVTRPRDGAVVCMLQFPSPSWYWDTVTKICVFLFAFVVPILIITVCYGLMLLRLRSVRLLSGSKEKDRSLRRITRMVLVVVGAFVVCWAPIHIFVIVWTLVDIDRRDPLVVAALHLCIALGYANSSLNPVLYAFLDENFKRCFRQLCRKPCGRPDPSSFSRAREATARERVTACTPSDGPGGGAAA
# T6 sequence (P30547 whole entry): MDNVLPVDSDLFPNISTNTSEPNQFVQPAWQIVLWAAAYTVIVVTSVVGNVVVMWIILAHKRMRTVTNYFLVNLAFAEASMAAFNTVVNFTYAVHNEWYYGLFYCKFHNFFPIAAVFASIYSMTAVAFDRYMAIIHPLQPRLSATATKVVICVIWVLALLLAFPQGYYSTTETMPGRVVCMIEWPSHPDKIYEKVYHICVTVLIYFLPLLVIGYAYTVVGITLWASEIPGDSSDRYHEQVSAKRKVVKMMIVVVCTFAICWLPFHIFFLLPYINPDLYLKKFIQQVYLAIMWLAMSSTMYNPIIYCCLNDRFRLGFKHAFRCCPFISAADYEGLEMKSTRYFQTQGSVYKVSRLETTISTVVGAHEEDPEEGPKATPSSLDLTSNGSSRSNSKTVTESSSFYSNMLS
smiles,measurement,setting,value
"CC(C)C[C@H](NC(=O)[C@@H]1CCCN1C(=O)[C@@H](Cc1ccccc1)NC(=O)[C@H](Cc1ccccc1)NC(=O)CNC(=O)[C@@H](C)NC(=O)[C@@H](N)Cc1ccc(O)cc1)C(=O)N[C@@H](Cc1c[nH]c2ccccc12)C(=O)OCc1cc(C(F)(F)F)cc(C(F)(F)F)c1 [TY007, H-Tyr-D-Ala-Gly-Phe-D-Phe-Pro-Leu-Trp-O-3,5-Bzl(CF3)2]","LogEC50, rMOR, [35S]GTP-γ-S binding",[1],−6.46 ± 0.38
same,EC50,"[1]; Table 27, read-out: GTP binding rMOR EC50",345 nM
same,Emax,"[1]; Table 27, read-out: GTP binding rMOR Emax (%)",23.6%
same,EC50,"[1]; Table 39, read-out: GTP binding rMOR EC50",345 nM
same,Emax,[1]; [7],23.6%
same,Emax,"[1]; net total bound/basal binding × 100, read-out: Emax, rMOR, [35S]GTP-γ-S binding",22%
same,EC50,"[1]; read-out: EC50, rMOR, [35S]GTP-γ-S binding",345 nM
same,Ki,[2],1.3 nM
same,"GPI/LMMP Opioid(m) Agonist, % inh.","μ opioid receptors (GPI); Table 28, at 1 (unit uncertain)",9% inh. at 1 mM
same,"GPI/LMMP opioid(mu) agonist, %","μ opioid receptors (GPI); Table 39, concentration not given",9.20%
same,"GPI (μ), effect at single concentration",μ opioid receptors (GPI); at 1 μM,9% at 1 μM^b
same,IC50,"rat NK1 (rNK1) receptor; IC50, rNK1, Substance P radioligand",66.7 nM
same,IC50,"rat NK1 (rNK1) receptor; LogIC50, rNK1, Substance P radioligand",60.3 nM
same,IC50,"δ opioid receptors (MVD); Table 28, read-out: MVD Opioid (d) Agonist (IC50; nM)",412 nM
same,IC50,"δ opioid receptors (MVD); Table 39, read-out: MVD opioid(delta) agonist (IC50; nM)",412 nM
same,IC50,"δ opioid receptors (MVD); electrically stimulated isolated tissue, read-out: MVD (δ), IC50",412 ± 106 nM
same,Ki,[3],110 nM
same,Ki(μ)/Ki(δ),"[3]; binding, rMOR vs hDOR",4.1
same,"LogIC50, hDOR, [3H]DPDPE",[3]; [8],−6.70 ± 0.13
same,Ki,"[3]; read-out: Ki, hDOR, [3H]DPDPE",93 nM
same,Kb,"[4]; Substance P antagonist, GPI, Ke, in the presence of 1 μM naloxone",69.6 ± 7.1 nM
same,GPI/LMMP SP Agonist (IC50; nM),[4]; concentration not given,none
same,activation at 1 µM,"[4]; read-out: Substance P GPI agonist (A50), at 1 μM, contraction relative to initial muscle contraction with KCl",0%
same,Ki,[5],410 nM
same,"LogIC50, rMOR, [3H]DAMGO",[5]; [8],−6.09 ± 0.15
same,Ki,"[5]; read-out: Ki, rMOR, [3H]DAMGO",381 nM
same,Ki(μ)/Ki(δ),[6],20.5
same,"LogEC50, hDOR, [35S]GTP-γ-S binding",[6],−7.78 ± 0.36
same,Emax,"[6]; read-out: Emax, hDOR, [35S]GTP-γ-S binding",26%
same,EC50,[6]; read-out: GTP binding hDOR EC50,16.7 nM
same,Emax,[6]; [9],22.9%
same,Emax,[6]; read-out: GTP binding hDOR Emax (%),22.9%
CSCC[C@H](NC(=O)[C@H](Cc1ccccc1)NC(=O)CNC(=O)[C@@H](C)NC(=O)[C@@H](N)Cc1c(C)cc(O)cc1C)C(=O)N1CCC[C@H]1C(=O)N[C@@H](CC(C)C)C(=O)N[C@@H](Cc1c[nH]c2ccccc12)C(=O)NCc1cc(C(F)(F)F)cc(C(F)(F)F)c1 [TY032],Emax,[1]; [7],74%
same,Ki,[2],0.008 nM
same,IC50,μ opioid receptors (GPI); [10],18.6 nM
same,IC50,μ opioid receptors (GPI); [11],18.6 nM
same,IC50,δ opioid receptors (MVD),1.82 nM
same,Ki,[3],0.12 nM
same,GPI/LMMP Substance P Agonist (IC50; nM),[4]; Table 30,None
same,GPI/LMMP SP Agonist (IC50; nM),[4]; at 100 nM,none
same,EC50,[6]; GTP binding hDOR EC50,1.2 nM
same,Emax,[6]; [9],24%
CSCC[C@H](NC(=O)[C@H](Cc1ccccc1)NC(=O)CNC(=O)[C@@H](C)NC(=O)[C@@H](N)Cc1c(C)cc(O)cc1C)C(=O)N1CCC[C@H]1C(=O)N[C@@H](CC(C)C)C(=O)N[C@@H](Cc1c[nH]c2ccccc12)C(=O)NCc1ccccc1 [TY034],Emax,[1]; [7],58%
same,IC50,μ opioid receptors (GPI); [10],11.4 nM
same,IC50,μ opioid receptors (GPI); [11],11.4 nM
same,Ki,"rat NK1 (rNK1) receptor; Affinity rNK1 (Ki; nM), Table 39",317 nM
same,IC50,δ opioid receptors (MVD),6.85 nM
same,Ki,[3],0.1 nM
same,Kb,"[4]; GPI/LMMP Substance P Antagonist (Ke; nM), Table 30",36.9 nM
same,GPI/LMMP Substance P Agonist (IC50; nM),[4]; Table 30,None
same,GPI/LMMP SP Agonist (IC50; nM),[4]; at 100 nM,none
same,Ki,[5],0.14 nM
same,Emax,"[6]; Table 39, read-out: GTP binding hDOR Emax",21%
CCCC[C@H](NC(=O)[C@H](Cc1ccccc1)NC(=O)CNC(=O)[C@@H](C)NC(=O)[C@@H](N)Cc1c(C)cc(O)cc1C)C(=O)N1CCC[C@H]1C(=O)N[C@@H](CC(C)C)C(=O)N[C@@H](Cc1c[nH]c2ccccc12)C(=O)N(C)Cc1cc(C(F)(F)F)cc(C(F)(F)F)c1 [TY052],Ki,"[2]; Table 31, read-out: Affinity hNK1 (Ki; nM)",0.21 nM
same,Ki,"[2]; Table 39, read-out: Affinity hNK1 (Ki; nM)",0.21 nM
same,Ki,"[3]; Table 31, read-out: Affinity hDOR (Ki; nM)",0.46 nM
same,Ki,"[3]; Table 39, read-out: Affinity hDOR (Ki; nM)",0.46 nM
